From ChEMBL document CHEMBL5303573, “Mapping human microbiome drug metabolism by gut bacteria and their genes” (Nature, 2019) come the findings set out here.

The nature of data set [1]: The drug is tested on Bifidobacterium longum subsp. Infantis strain: CCUG52486 for biotransformation. The drug concentrations were measured before and after a 12-h incubation by liquid-chromatography-coupled mass spectrometry (LC–MS). Conditions: 2 µM.
A short description of data set [2]: The drug is tested on Bifidobacterium ruminantium strain: fecal isolate for biotransformation. The drug concentrations were measured before and after a 12-h incubation by liquid-chromatography-coupled mass spectrometry (LC–MS). Conditions: 2 µM.
A short description of data set [3]: The drug is tested on Collinsella aerofaciens strain: ATCC25986 for biotransformation. The drug concentrations were measured before and after a 12-h incubation by liquid-chromatography-coupled mass spectrometry (LC–MS). Conditions: 2 µM.
Data set [4] in a line: The drug is tested on Bacteroides caccae strain: ATCC43185 for biotransformation. The drug concentrations were measured before and after a 12-h incubation by liquid-chromatography-coupled mass spectrometry (LC–MS). The following applies: 2 µM.
Data set [5] in a line: The drug is tested on Bacteroides cellulosilyticus strain: DSM14838 for biotransformation. The drug concentrations were measured before and after a 12-h incubation by liquid-chromatography-coupled mass spectrometry (LC–MS). The following applies: 2 µM.
A short description of data set [6]: The drug is tested on Anaerotruncus colihominis strain: DSM17241 for biotransformation. The drug concentrations were measured before and after a 12-h incubation by liquid-chromatography-coupled mass spectrometry (LC–MS). The following applies: 2 µM.
A short description of data set [7]: The drug is tested on Clostridium sp. strain: fecal isolate for biotransformation. The drug concentrations were measured before and after a 12-h incubation by liquid-chromatography-coupled mass spectrometry (LC–MS). The following applies: 2 µM.
The nature of data set [8]: The drug is tested on Clostridium scindens strain: ATCC35704 for biotransformation. The drug concentrations were measured before and after a 12-h incubation by liquid-chromatography-coupled mass spectrometry (LC–MS). Conditions: 2 µM.
A short description of data set [9]: The drug is tested on Dorea formicigenerans strain: ATCC27755 for biotransformation. The drug concentrations were measured before and after a 12-h incubation by liquid-chromatography-coupled mass spectrometry (LC–MS). The following applies: 2 µM.
A short description of data set [10]: The drug is tested on Ruminococcus gnavus strain: ATCC29149 for biotransformation. The drug concentrations were measured before and after a 12-h incubation by liquid-chromatography-coupled mass spectrometry (LC–MS). Conditions: mediterraneibacter gnavus, 2 µM.
Data set [11] is described as follows: The drug is tested on Ruminococcus lactaris strain: ATCC29176 for biotransformation. The drug concentrations were measured before and after a 12-h incubation by liquid-chromatography-coupled mass spectrometry (LC–MS). The following applies: 2 µM.
For data set [12] the following is noted: bifidobacterium adolescentis, 12 h, 2 µM.
Description: The drug is tested on Bifidobacterium adolescentis strain: ATCC 15703 for biotransformation. The drug concentrations were measured before and after a 12-h incubation by liquid-chromatography-coupled mass spectrometry (LC–MS)
The conditions of data set [13]: bacteroides fragilis, 12 h, 2 µM.
Description: The drug is tested on Bacteroides fragilis strain: DS-208 for biotransformation. The drug concentrations were measured before and after a 12-h incubation by liquid-chromatography-coupled mass spectrometry (LC–MS)
The conditions of data set [14]: bacteroides intestinalis, 12 h, 2 µM.
Description: The drug is tested on Bacteroides intestinalis strain: DSM17393 for biotransformation. The drug concentrations were measured before and after a 12-h incubation by liquid-chromatography-coupled mass spectrometry (LC–MS)
For data set [15] the following is noted: bacteroides thetaiotaomicron, 12 h, 2 µM.
Description: The drug is tested on Bacteroides thetaiotaomicron strain: VPI-5482 for biotransformation. The drug concentrations were measured before and after a 12-h incubation by liquid-chromatography-coupled mass spectrometry (LC–MS)
For data set [16] the following is noted: parabacteroides johnsonii, 12 h, 2 µM.
Description: The drug is tested on Parabacteroides johnsonii strain: DSM18315 for biotransformation. The drug concentrations were measured before and after a 12-h incubation by liquid-chromatography-coupled mass spectrometry (LC–MS)
For data set [17] the following is noted: anaerostipes sp., 12 h, 2 µM.
Description: The drug is tested on Anaerostipes sp. strain: fecal isolate for biotransformation. The drug concentrations were measured before and after a 12-h incubation by liquid-chromatography-coupled mass spectrometry (LC–MS)
A short description of data set [18]: The drug is tested on Bacteroides vulgatus strain: ATCC8482 for biotransformation. The drug concentrations were measured before and after a 12-h incubation by liquid-chromatography-coupled mass spectrometry (LC–MS). The following applies: phocaeicola vulgatus, 2 µM.
Data set [19] in a line: The drug is tested on Ruminococcus torques strain: ATCC27756 for biotransformation. The drug concentrations were measured before and after a 12-h incubation by liquid-chromatography-coupled mass spectrometry (LC–MS). The following applies: 2 µM. It counts as ADME. On the set-up: dose 2 uM, timepoint 0 vs 12 hours.
A short description of data set [20]: The drug is tested on Parabacteroides merdae strain: ATCC43184 for biotransformation. The drug concentrations were measured before and after a 12-h incubation by liquid-chromatography-coupled mass spectrometry (LC–MS). Conditions: 2 µM.

In the case of `OC(CCN1CCCCC1)(c1ccccc1)C1CCCCC1` (stereo not drawn) [TRIHEXYPHENIDYL], the “Bacterial Biotransformation” value in data set [1] is “Compound NOT metabolized”; in [2] it was “Compound metabolized”; in data set [3], “Compound NOT metabolized”; in [4], “Compound NOT metabolized”; in [5], “Compound NOT metabolized”; in data set [6], “Compound NOT metabolized”. For the same compound, the “Bacterial Biotransformation” value in [7] was “Compound metabolized”; in [8], “Compound NOT metabolized”; in [9], “Compound NOT metabolized”; in data set [10], “Compound NOT metabolized”; in data set [11], “Compound NOT metabolized”; in [12] it was “Compound NOT metabolized”. For the same compound, the “Bacterial Biotransformation” value in [13], in data set [14], in data set [15], in data set [16] and in data set [17] was “Compound NOT metabolized” throughout.
On to `C[C@]12CCC(=O)C=C1[C@@H]1C[C@@H]1[C@H]1[C@@H]3[C@@H]4C[C@@H]4[C@@]4(CCC(=O)O4)[C@@]3(C)CC[C@@H]12` [DROSPIRENONE], for which the “Bacterial Biotransformation” value is on record as “Compound NOT metabolized” in data set [1]; “Compound NOT metabolized” in data set [2]; “Compound NOT metabolized” in [3]; “Compound NOT metabolized” in data set [4]; “Compound NOT metabolized” in data set [5]; “Compound metabolized” in [18]. Further, the “Bacterial Biotransformation” value in data set [6] is given as “Compound NOT metabolized”; in data set [7], “Compound NOT metabolized”; in data set [8], “Compound NOT metabolized”; in [9], “Compound NOT metabolized”; in data set [10], “Compound metabolized”; in [11] it was “Compound NOT metabolized”. In addition, the “Bacterial Biotransformation” value in data set [19] is reported as “Compound NOT metabolized”; in [12], “Compound NOT metabolized”; in data set [13], “Compound NOT metabolized”; in data set [14] it was “Compound NOT metabolized”; in data set [16], “Compound metabolized”; in [17] it was “Compound NOT metabolized”.
Regarding `CC(N)C12CC3CC(CC(C3)C1)C2` (stereo not drawn) [RIMANTADINE], the “Bacterial Biotransformation” value in [1], in [2], in data set [3], in data set [4], in [5] and in data set [20] was “Compound NOT metabolized” each time. Moreover, the “Bacterial Biotransformation” value in [6], in data set [7], in data set [8], in [9], in [10] and in data set [11] was “Compound NOT metabolized” throughout. Also, the “Bacterial Biotransformation” value in data set [19], in data set [12], in data set [13], in data set [14], in data set [15] and in data set [16] was “Compound NOT metabolized” each time. Also, the “Bacterial Biotransformation” value in [17] is on record as “Compound NOT metabolized”.
As to `CCN(C)C(=O)Oc1cccc([C@H](C)N(C)C)c1.O=C(O)C(O)C(O)C(=O)O` [RIVASTIGMINE TARTRATE], the “Bacterial Biotransformation” value in [1], in data set [2], in [3], in data set [4], in data set [5] and in [20] was “Compound NOT metabolized” in each case. In addition, the “Bacterial Biotransformation” value in data set [6], in [7], in [8], in [9], in [10] and in data set [11] was “Compound NOT metabolized” throughout. Also, the “Bacterial Biotransformation” value in data set [19], in [12], in data set [13], in data set [14], in data set [15] and in data set [16] was “Compound NOT metabolized” each time. The “Bacterial Biotransformation” value in [17] is recorded as “Compound NOT metabolized”.
`C#C[C@]1(OC(C)=O)CC[C@H]2[C@@H]3CCC4=C[C@@H](OC(C)=O)CC[C@@H]4[C@H]3CC[C@@]21C` [ETHYNODIOL DIACETATE]: the “Bacterial Biotransformation” value in [1], in data set [2], in [3], in [4], in data set [5] and in data set [18] was “Compound NOT metabolized” each time. Besides, the “Bacterial Biotransformation” value in [20], in data set [6], in data set [7], in data set [8], in data set [9] and in data set [11] was “Compound NOT metabolized” each time. The “Bacterial Biotransformation” value in [19], in data set [12], in [13], in data set [14], in data set [15] and in data set [17] was “Compound NOT metabolized” each time.
`Cc1ccc(S(=O)(=O)NC(=O)NN2CCCCCC2)cc1` [TOLAZAMIDE]: the “Bacterial Biotransformation” value is “Compound metabolized” in data set [1]; “Compound metabolized” in data set [2]; “Compound metabolized” in data set [5]; “Compound metabolized” in [18]; “Compound NOT metabolized” in data set [6]; “Compound metabolized” in data set [7]. Also, the “Bacterial Biotransformation” value in data set [8], in data set [9], in data set [10], in data set [11], in data set [19] and in data set [12] was “Compound NOT metabolized” throughout. Further, the “Bacterial Biotransformation” value in data set [13] is given as “Compound metabolized”; in data set [14], “Compound NOT metabolized”; in data set [15], “Compound metabolized”; in data set [16] it was “Compound metabolized”; in data set [17], “Compound NOT metabolized”.
